Measured values as given in US20250109135A1, “NOVEL ISOINDOLINONE DERIVATIVE COMPOUNDS AS CASPASE INHIBITORS” (INNOVO THERAPEUTICS INC., priority 2022, published 2025).
Where two headings read alike, the source gives them in different places.

Columns and labels:
[1] = system: Secreted IL-1β in THP-1 cells; assay: Interleukin-1β inhibitory activity in human monocytic cells THP-1 (ELISA); type: cell-based; settings: compound 100 nM, PMA-differentiated THP-1, LPS 10 μg/ml then 5 mM ATP, 24 h
Experimental: Caspase-1 is known as […] (ICE). Activated Caspase-1 is involved in the cleavage of pro-form IL-1β to produce the mature form, which is then secreted to induce inflammation. Therefore, the compounds identified in Experimental example 1 were tested to determine if their Caspase-1 inhibitory activity affected the production of […].
THP-1 (ATCC) cells were cultured in RPMI 1640 (Hyclone) growth medium comprising 10% Fetal bovine serum (FBS, Gibco) and antibiotics (100 U/ml Penicillin, 0.1 mg/ml Streptomycin, Cytiva) under 37° C., 5% CO2 conditions. Cultured THP-1 cells were seeded in growth medium to a concentration of 3×10^5 cells/well in 24-well plates (Celvest) and then treated with 1 μM Phorbol 12-myristate 13-acetate (PMA) (Sigma) for 24 hours to induce differentiation. Differentiated THP-1 were pre treated with 10 μg/ml Lipopolysaccharide (LPS, from E. coli 0111:B4 (InvivoGen)) in serum free RPMI 1640 medium for 24 hours to induce an inflammatory response. After removal of LPS, the compounds were pretreated for 1 h at a concentration of 100 nM using the same medium, followed by the addition of 5 mM ATP (InvivoGen) and incubation for 24 h in an incubator. The treated medium was collected and centrifuged, and IL-1β was quantified using an Enzyme linked immunoassay kit (ELISA kit, R&D system), and absorbance was measured at 450 nm using a CLARIOstar Plus spectrometer. Inhibitory activity was denoted as a if it was 50% or more, b if it was 30% or more but less than 50%, c if it was 10% or more but less than 30%, and d if it was less than 10%.

Jurkat cells = assay: Apoptosis inhibition activity in human T-lymphocyte cells Jurkat (anti-FAS antibody, intracellular ATP); type: cell-based; settings: compound 50 nM, 1 μg/ml anti-FAS antibody 24 h, ATP luminescence
Experimental: To evaluate the effect of the compound of the present invention on apoptosis, Jurkat (ATCC) cells were treated with anti-FAS antibody CH-11 (Merck) to induce apoptosis via the Fas (CD95) receptor, which was assessed by the amount of intracellular ATP.
Jurkat cells were cultured in RPMI 1640 growth medium comprising 10% FBS and antibiotics (100 U/ml Penicillin, 0.1 mg/ml Streptomycin) under 37° C., 5% CO2 conditions. Cultured cells were seeded in growth medium to a concentration of 8×10^4 cells/well in 96-well plates (SPL), pretreated with compound at a concentration of 50 nM for 1 hour, and then treated with 1 μg/ml anti-FAS antibody for 24 hours in an incubator. After 24 h, an ATP lite Luminescence assay kit (PerkinElmer) was used to measure ATP and luminescence was measured at 580 nm using a CLARIOstar Plus spectrometer. If the inhibitory activity is 30% or more, it is denoted as a′, if it is 20% or more but less than 30%, it is denoted as b′, if it is 10% or more but less than 20%, it is denoted as c′, and if it is less than 10%, it is denoted as d′.

[2] = target: T1, recombinant human Caspase-1 (Homo sapiens, UniProt P29466); assay: Caspase-1 inhibitory activity, fluorescent substrate Ac-YVAD-AFC; type: biochemical
T1 construct: purchased Enzo life science
T1 sequence (P29466 120-297 limits assumed): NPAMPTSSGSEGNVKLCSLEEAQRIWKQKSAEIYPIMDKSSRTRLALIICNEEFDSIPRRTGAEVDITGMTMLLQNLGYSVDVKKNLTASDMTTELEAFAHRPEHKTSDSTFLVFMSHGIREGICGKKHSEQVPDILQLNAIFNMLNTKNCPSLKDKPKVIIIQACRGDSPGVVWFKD
T1 sequence (P29466 317-404 limits assumed): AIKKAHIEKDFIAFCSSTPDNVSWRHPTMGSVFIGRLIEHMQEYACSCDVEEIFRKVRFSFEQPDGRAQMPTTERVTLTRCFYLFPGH
Experimental: To determine the Caspase-1 inhibitory activity of the compounds of the present invention prepared in Example, Caspase-1 activity was measured using a substrate with a fluorescent dye attached to it. […] The compound was dissolved in DMSO and stored at −20° C. Enzymatic reactions were carried out in a buffer comprising 50 mM HEPES (pH 8.0), 50 mM KCl, 200 mM NaCl, 10 mM DTT, 0.1% CHAPS (w/v). Enzyme inactivation was measured in the presence of different concentrations of the compound using the fluorescent substrate N-Acetyl-Tyr-Val-Ala-Asp-7-amido-4-trifluoromethylcoumarin (Ac-YVAD-AFC) (Sigma) at a concentration of 50 μM and 1 unit of recombinant human Caspase-1 (Enzo life science). A CLARIOstar Plus spectrometer (BMG Labtech) was used to measure the reaction rate as a function of time in the 400/505 nm (Ex/Em) wavelength band. […] If kobs/[I] is 20 or more, it is denoted as A, if it is 10 or more but less than 20, it is denoted as B, if it is 1 or more but less than 10, it is denoted as C, and if it is less than 1, it is denoted as D.
In the above equation, At means the enzyme reaction rate at time t (min), and Amax means the maximum reaction rate.

[3] = pH 8, read-out: kobs/[I] Caspase-1
[4] = pH 8, 1 unit recombinant human Caspase-1, 50 μM Ac-YVAD-AFC, read-out: kobs/[I] Caspase-1

Row | kinact/KI [2, 4] [M⁻¹ s⁻¹] | SMILES | inhibition at 0.1 µM [1] [%] | inhibition at 0.05 µM (Jurkat cells) [%] | kinact/KI [2, 3] [M⁻¹ s⁻¹]
1 | – | CC[C@@H](C(=O)N[C@@H](CC(=O)O)C(=O)COc1c(F)c(F)cc(F)c1F)N1Cc2ccc(-c3ccc4[nH]c(=O)[nH]c4c3)cc2C1=O [Compound 52, (S)-4-oxo-3-((S)-2-(1-oxo-6-(2-oxo-2,3-dihydro-1H-benzo[d]imidazol-5-yl)isoindolin-2-yl)butanamido)-5-(2,3,5,6-tetrafluorophenoxy)pentanoic acid] | 10 to 30 | 10 to 20 | > 0.333
2 | 0.0167 to 0.167 | CC(C)[C@@H](C(=O)NC(CC(=O)O)C(=O)CF)N1Cc2ccc(-c3ccc4c(c3)OCCO4)cc2C1=O (stereo partly drawn) [Compound 42, 3-((S)-2-(6-(2,3-dihydrobenzo[b][1,4]dioxin-6-yl)-1-oxoisoindolin-2-yl)-3-methylbutanamido)-5-fluoro-4-oxopentanoic acid] | 30 to 50 | ≥ 30 | –
3 | – | CC(C)[C@@H](C(=O)NC(CC(=O)O)C(=O)CF)N1Cc2ccc(-c3ccc4[nH]c(=O)[nH]c4c3)cc2C1=O (stereo partly drawn) [Compound 45, 5-fluoro-3-((S)-3-methyl-2-(1-oxo-6-(2-oxo-2,3-dihydro-1H-benzo[d]imidazol-5-yl)isoindolin-2-yl)butanamido)-4-oxopentanoic acid] | 30 to 50 | 10 to 20 | 0.0167 to 0.167
4 | 0.0167 to 0.167 | CCC(C(=O)NC(CC(=O)O)C(=O)CF)N1Cc2ccc(N3CCCC3)cc2C1=O (centres unmarked) [Compound 3, 5-fluoro-4-oxo-3-(2-(1-oxo-6-(pyrrolidin-1-yl)isoindolin-2-yl)butanamido)pentanoic acid] | 30 to 50 | 20 to 30 | –
5 | 0.167 to 0.333 | CC[C@@H](C(=O)NC(CC(=O)O)C(=O)CF)N1Cc2ccc(-c3ccc4[nH]c(=O)[nH]c4c3)cc2C1=O (stereo partly drawn) [Compound 56, 5-fluoro-4-oxo-3-((S)-2-(1-oxo-6-(2-oxo-2,3-dihydro-1H-benzo[d]imidazol-5-yl)isoindolin-2-yl)butanamido)pentanoic acid] | ≥ 50 | < 10 | –
6 | – | O=C(O)CC(NC(=O)CN1Cc2ccc(-c3ccc4occc4c3)cc2C1=O)C(=O)CF (centres unmarked) [Compound 41, 3-(2-(6-(benzofuran-5-yl)-1-oxoisoindolin-2-yl)acetamido)-5-fluoro-4-oxopentanoic acid] | < 10 | < 10 | 0.0167 to 0.167
7 | 0.167 to 0.333 | CCC(C(=O)NC(CC(=O)O)C(=O)CF)N1Cc2ccc(-c3ccc4ncccc4c3)cc2C1=O (centres unmarked) [Compound 30, 5-fluoro-4-oxo-3-(2-(1-oxo-6-(quinolin-6-yl)isoindolin-2-yl)butanamido)pentanoic acid] | < 10 | < 10 | –
8 | 0.0167 to 0.167 | CCC(C(=O)NC(CC(=O)O)C(=O)CF)N1Cc2ccc(-c3cccnc3)cc2C1=O (centres unmarked) [Compound 4, 5-fluoro-4-oxo-3-(2-(1-oxo-6-(pyridin-3-yl)isoindolin-2-yl)butanamido)pentanoic acid] | 30 to 50 | 10 to 20 | –
9 | – | O=C(O)CC(NC(=O)CN1Cc2ccc(-c3csc4ccccc34)cc2C1=O)C(=O)CF (centres unmarked) [Compound 40, 3-(2-(6-(benzo[b]thiophen-3-yl)-1-oxoisoindolin-2-yl)acetamido)-5-fluoro-4-oxopentanoic acid] | < 10 | < 10 | 0.0167 to 0.167
10 | 0.167 to 0.333 | CC[C@@H](C(=O)N[C@@H](CC(=O)O)C(=O)COc1c(F)c(F)cc(F)c1F)N1Cc2ccc(-c3coc4ccccc34)cc2C1=O [Compound 50, (S)-3-((S)-2-(6-(benzofuran-3-yl)-1-oxoisoindolin-2-yl)butanamido)-4-oxo-5-(2,3,5,6-tetrafluorophenoxy)pentanoic acid] | ≥ 50 | ≥ 30 | –
11 | 0.0167 to 0.167 | CCC(C(=O)NC(CC(=O)O)C(=O)CF)N1Cc2ccc(-c3cn[nH]c3)cc2C1=O (centres unmarked) [Compound 5, 5-fluoro-4-oxo-3-(2-(1-oxo-6-(1H-pyrazol-4-yl)isoindolin-2-yl)butanamido)pentanoic acid] | 30 to 50 | 10 to 20 | –
12 | 0.0167 to 0.167 | CCC(C(=O)NC(CC(=O)O)C(=O)CF)N1Cc2ccc(-c3cccc4ccccc34)cc2C1=O (centres unmarked) [Compound 2, 5-fluoro-3-(2-(6-(naphthalen-1-yl)-1-oxoisoindolin-2-yl)butanamido)-4-oxopentanoic acid] | 30 to 50 | 10 to 20 | –
13 | 0.0167 to 0.167 | CCC(C(=O)NC(CC(=O)O)C(=O)CF)N1Cc2ccc(-c3ccnc(N)c3)cc2C1=O (centres unmarked) [Compound 23, 3-(2-(6-(2-aminopyridin-4-yl)-1-oxoisoindolin-2-yl)butanamido)-5-fluoro-4-oxopentanoic acid] | < 10 | – | –
14 | 0.0167 to 0.167 | CCC(C(=O)NC(CC(=O)O)C(=O)CF)N1Cc2ccc(-c3cnn4ccccc34)cc2C1=O (centres unmarked) [Compound 33, 5-fluoro-4-oxo-3-(2-(1-oxo-6-(pyrazolo[1,5-a]pyridin-3-yl)isoindolin-2-yl)butanamido)pentanoic acid] | < 10 | – | –
15 | 0.0167 to 0.167 | CCC(C(=O)NC(CC(=O)O)C(=O)CF)N1Cc2ccc(C3=CCN(S(C)(=O)=O)CC3)cc2C1=O (centres unmarked) [Compound 7, 5-fluoro-3-(2-(6-(1-(methylsulfonyl)-1,2,3,6-tetrahydropyridin-4-yl)-1-oxoisoindolin-2-yl)butanamido)-4-oxopentanoic acid] | < 10 | – | –
16 | 0.0167 to 0.167 | CCC(C(=O)NC(CC(=O)O)C(=O)CF)N1Cc2ccc(-c3ccc(C(F)(F)F)nc3)cc2C1=O (centres unmarked) [Compound 20, 5-fluoro-4-oxo-3-(2-(1-oxo-6-(6-(trifluoromethyl)pyridin-3-yl)isoindolin-2-yl)butanamido)pentanoic acid] | 10 to 30 | – | –
17 | 0.0167 to 0.167 | CCC(C(=O)NC(CC(=O)O)C(=O)CF)N1Cc2ccc(-c3ccc(C(=O)O)cc3)cc2C1=O (centres unmarked) [Compound 17, 4-(2-(1-((1-carboxy-4-fluoro-3-oxobutan-2-yl)amino)-1-oxobutan-2-yl)-3-oxoisoindolin-5-yl)benzoic acid] | 10 to 30 | – | –
18 | 0.0167 to 0.167 | CCC(C(=O)NC(CC(=O)O)C(=O)CF)N1Cc2ccc(-c3ccc4scnc4c3)cc2C1=O (centres unmarked) [Compound 32, 3-(2-(6-(benzo[d]thiazol-5-yl)-1-oxoisoindolin-2-yl)butanamido)-5-fluoro-4-oxopentanoic acid] | < 10 | – | –
19 | 0.0167 to 0.167 | CCC(C(=O)NC(CC(=O)O)C(=O)CF)N1Cc2ccc(-c3cnc(N)nc3)cc2C1=O (centres unmarked) [Compound 21] | 30 to 50 | – | –
